Laboratory results as given in patent US20240300934A1, “COMPOUNDS FOR MODULATING MYCOBACTERIUM TUBERCULOSIS RESPONSE” (priority 2021, published 2024).
In brackets after ≈: the same amount, converted by molar mass. Read-outs that look alike come from different tables or passages of the source.

How the values were obtained:
[1] = tested on: rv2390c′::GFP reporter Mtb strain; assay type: cell-based, Mycobacterium tuberculosis
[2] = Kinetic aqueous solubility in pH 7.4 PBS; assay type: physicochemical; conditions: read-out: Kinetic Aqueous Solubility S
Description: (§1) Assays examining mouse and human liver microsomal stability, kinetic aqueous solubility, mouse and human plasma protein binding and stability, and human cytochrome P450 inhibition characteristics of the compounds were run by BioDuro, Incorporated, using standard protocols as previously described (Wang et al, 2020). hERG inhibition assays were also performed by BioDuro, Incorporated.

[3] = Human liver microsomal stability; assay type: in vitro ADME
Vero cells = assay: Vero cell toxicity assay; assay type: cell-based, African green monkey; conditions: 72 h
Description: Vero cells (African green monkey kidney epithelial cells; ATCC CCL-81) were maintained in DMEM+10% FBS. For the cell toxicity assay, Vero cells were plated at 1×10^5 cells/well in a 96-well plate and incubated for 2-3 h to allow cells to settle. The test compound was dissolved in DMSO at a final concentration of 12 mg/ml. The test compound solution was then added to plated cells, resulting in final test concentrations of 50 to 0.78 μg/ml, with each concentration tested at least in duplicate. To evaluate […] cell viability, 20 μl of a 1:20 MTS:PMS reagent (Promega CellTiter 96 AQueous non-radioactive cell proliferation assay kit) was added to each well after 72 h of incubation at 37° C. and the plate then incubated for an additional 3 h. Absorbance at 490 nm was read on a Molecular Devices SpectraMax M5 microplate reader. The CC50 (the minimal amount of compound that inhibited Vero cell growth by 50%) was extrapolated by plotting absorbance at 490 nm versus the […].

Human plasma stability = assay type: in vitro ADME; conditions: after 5 h incubation
Description: as §1

human CYP 450 1A2 = target: T1, human CYP 450 1A2 (Homo sapiens, UniProt P05177); assay: Human cytochrome P450 inhibition, 1A2; assay type: in vitro ADME; conditions: 10 μM
T1 sequence (P05177 1-516): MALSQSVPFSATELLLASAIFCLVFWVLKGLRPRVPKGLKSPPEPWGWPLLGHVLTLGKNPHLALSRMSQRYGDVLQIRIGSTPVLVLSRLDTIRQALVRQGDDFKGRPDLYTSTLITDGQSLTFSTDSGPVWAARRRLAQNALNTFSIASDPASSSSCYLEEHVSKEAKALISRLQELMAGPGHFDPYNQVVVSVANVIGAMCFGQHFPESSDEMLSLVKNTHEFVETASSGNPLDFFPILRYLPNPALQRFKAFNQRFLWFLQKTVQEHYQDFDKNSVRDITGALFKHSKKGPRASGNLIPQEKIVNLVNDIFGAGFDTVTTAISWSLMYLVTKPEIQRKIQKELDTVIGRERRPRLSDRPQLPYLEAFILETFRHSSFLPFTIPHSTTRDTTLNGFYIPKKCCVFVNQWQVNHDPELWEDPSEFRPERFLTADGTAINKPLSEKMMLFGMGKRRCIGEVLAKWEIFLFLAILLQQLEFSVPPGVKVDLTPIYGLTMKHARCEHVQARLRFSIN

human CYP 450 2C19 = human CYP 450 2C19 (Homo sapiens, UniProt P33261); assay: Human cytochrome P450 inhibition, 2C19; assay type: in vitro ADME; conditions: 10 μM
human CYP 450 3A4/5 = assay: Human cytochrome P450 inhibition, 3A4/5; assay type: in vitro ADME; conditions: 10 μM
Mtb [4] = conditions: PubChem AID 1259343, SID 340463129; cited from earlier work
Mtb [5] = assay: Mtb growth assay in standard 7H9 media (OD600); conditions: 10 μM
Description: Bacterial growth was tracked by measuring OD600 every 3 days for 12 days. […] Bacterial growth was tracked by measurement of D600 every 3 days over 12 days.

J774 cells = assay: Intracellular drug accumulation assay in J774 cells; conditions: 24 h exposure; uninfected J774 cells

Chain of human CYP 450 2C19 (P33261 whole entry): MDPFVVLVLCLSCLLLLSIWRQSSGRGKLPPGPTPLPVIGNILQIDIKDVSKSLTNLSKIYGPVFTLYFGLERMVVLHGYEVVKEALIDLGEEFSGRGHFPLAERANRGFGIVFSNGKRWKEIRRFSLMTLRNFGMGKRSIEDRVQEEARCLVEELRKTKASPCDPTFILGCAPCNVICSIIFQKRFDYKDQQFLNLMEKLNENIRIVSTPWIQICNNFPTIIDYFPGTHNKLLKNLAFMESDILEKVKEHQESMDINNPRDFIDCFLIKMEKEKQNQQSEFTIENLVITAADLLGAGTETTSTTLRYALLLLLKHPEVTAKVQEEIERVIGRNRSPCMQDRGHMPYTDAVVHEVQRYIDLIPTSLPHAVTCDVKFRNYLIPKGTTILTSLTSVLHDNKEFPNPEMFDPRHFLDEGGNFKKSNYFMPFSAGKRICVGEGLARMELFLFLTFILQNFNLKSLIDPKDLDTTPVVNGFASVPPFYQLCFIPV

Which results are given for `CCSc1ncc(CN2CCN(c3nc4ccccc4o3)CC2)cn1` [Compound C6, 2-(4-((2-(ethylthio)pyrimidin-5-yl)methyl)piperazin-1-yl)benzo[d]oxazole]?
rv2390c′::GFP reporter signal upon Mtb exposure to high [Cl−] (in words) ([1]; 10 μM, 250 mM NaCl): increased rv2390c′::GFP reporter signal; rv2390c′::GFP Cl− response phenotype ([1]; compared to C6): Y; rv2390c′::GFP response phenotype ([1]; screen hits, high chloride (250 mM NaCl, pH 6.4)): Increases induction in high; solubility kinetic ([2]; PBS, pH 7.4, aqueous buffer, kinetic from dmso stock, Table 2): 76.4 µM (≈ 27.2 µg/mL); solubility kinetic ([2]; pH 7.4 phosphate buffered saline (PBS)): 76.4 µM (≈ 27.2 µg/mL); t1/2 in human liver microsomes [3]: 37.6 min; CC50 (minimum compound concentration to inhibit cell growth by 50%) (Vero cells): > 50 µg/mL; stability in human plasma, % remaining (Human plasma stability): 94.6%; % inhibition of CYP 1A2 (human CYP 450 1A2): < 1%; % inhibition of CYP 2C19 (human CYP 450 2C19): 30.3%; % inhibition of CYP 3A4/5 (human CYP 450 3A4/5): < 1%; growth inhibition call in previous cholesterol media screen (Mtb [4]): positive for growth inhibition; Mtb growth in standard 7H9 media (Mtb [5]): no effect; intracellular accumulation in J774 cells (J774 cells): dose-dependent accumulation
